Key:
L. fermentum = assay: MRS broth fermentation, CO2 respirometry; format: cell-based, Lactobacillus fermentum; details: 1 ppm, 1×10^5 cell/mL start
Method: Solutions of Vortexx and Octave were provided by the Ecolab, Inc. The antibiotic Virginiamycin was purchased from SantaCruz Biotechnology. Ethanol Red yeast (Fermentis), and Lactobacillus fermentum were revived from 10% glycerol stocks maintained at […]. Yeast was grown at 30° C. under aerobic conditions in either liquid YPD medium or on YPD agar prior to use in propagations and fermentations. Bacteria were grown at 30° C. under anaerobic conditions in either liquid MRS broth, and or on MRS agar plates. Liquefied corn mash and gluco-amylase enzyme was provided by Illinois River Energy (Rochelle, Ill.).
Fermentations were conducted in Wheaton glass bottles placed in a 30° C. recirculating water bath atop an 8-position magnetic stir-plate. Each bottle was sealed with a rubber septum cap and connected through ⅛″ tubing to a respirometer instrument (Challenger Instruments), which quantified the off-gassing of CO2 during fermentation.
MRS broth fermentations were conducted in 0.125 L Wheaton bottles, each containing the 100 mL of MRS broth and 4 mL propagated bacteria. […]
MRS broth, which contains only 0.6% solids compared to typical liquefied corn mash at 30% solids, represents a relatively simple test of the effectiveness of the peracid chemistries for controlling Lactobacillus growth. […] All bottles were placed monitored via respirometry under identical conditions. […]

Lactobacilli = details: 2 hours of contact time in the absence of yeast; cited from earlier work
[1] = pH 4
Excerpt: The issue of low solubility when using long chain peracids has been addressed by increasing the pH to above 7. […] Further, bleaching efficacy decreases proportionally with every pH unit increase over about 7.

Virginiamycin
CO2 production (L. fermentum): failed to produce any CO2
bacterial growth (L. fermentum): no bacterial growth

OO [hydrogen peroxide]
hydrogen peroxide required for effective bacterial control (Lactobacilli): 600 ppm

O=C(CCCCCCCCCCS(=O)(=O)O)OO [11-sulfoundecane peroxoic acid]
solubility [1]: about 1.3%
